Test results: patent US12097202B2 (Kadmon Corporation, LLC, priority 2022, dated 2024)

Key:
[1] = system: human peripheral blood lymphocytes (HPBL); assay: in vitro chromosome aberration assay; type: cell-based
[2] = Clinical pharmacokinetics in healthy subjects (bioavailability, food effect, distribution, excretion); type: in vivo, human
[3] = system: patients with chronic GVHD; assay: Pooled adverse reactions and laboratory abnormalities, 83 adult chronic GVHD patients on 200 mg once daily (KD025-213 and KD025-208); type: in vivo, human; conditions: for Alanine Aminotransferase Increased / Alkaline Phosphatase Increased / Calcium Decreased / Creatinine Increased / Gamma Glutamyl Transferase Increased / Hemoglobin Decreased / Lymphocytes Decreased / Neutrophil Count Decreased / Phosphate Decreased / Platelets Decreased / Potassium Increased: Grade 0-1 Baseline
Source text: The median duration of treatment was 9.2 months (range 0.5 to 44.7 months).

OATP1B1 = biological target: T1, OATP1B1 (Homo sapiens, UniProt Q9Y6L6); assay: In vitro transporter study, OATP1B1; type: in vitro ADME; conditions: at clinically relevant concentrations
T1 sequence (Q9Y6L6 1-691): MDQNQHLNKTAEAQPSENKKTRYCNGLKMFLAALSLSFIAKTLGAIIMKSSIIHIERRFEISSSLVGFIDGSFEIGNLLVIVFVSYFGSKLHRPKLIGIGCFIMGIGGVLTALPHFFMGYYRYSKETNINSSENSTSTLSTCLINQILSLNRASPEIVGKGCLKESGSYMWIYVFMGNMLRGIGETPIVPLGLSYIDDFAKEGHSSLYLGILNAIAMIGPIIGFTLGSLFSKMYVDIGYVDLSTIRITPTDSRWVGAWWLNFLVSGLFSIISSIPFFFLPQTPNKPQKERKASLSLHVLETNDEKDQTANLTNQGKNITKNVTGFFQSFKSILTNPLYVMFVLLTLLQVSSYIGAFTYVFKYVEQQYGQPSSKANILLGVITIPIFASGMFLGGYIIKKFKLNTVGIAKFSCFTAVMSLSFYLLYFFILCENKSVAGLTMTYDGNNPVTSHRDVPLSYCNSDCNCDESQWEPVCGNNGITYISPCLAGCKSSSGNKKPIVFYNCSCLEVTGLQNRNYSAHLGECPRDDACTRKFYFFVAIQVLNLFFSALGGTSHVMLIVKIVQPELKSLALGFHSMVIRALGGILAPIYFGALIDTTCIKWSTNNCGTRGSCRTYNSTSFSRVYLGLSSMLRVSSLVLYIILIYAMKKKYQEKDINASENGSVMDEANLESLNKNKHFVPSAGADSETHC

[4] = Clinical pharmacokinetics in chronic GVHD patients; type: in vivo, human
human serum albumin = human serum albumin (Homo sapiens, UniProt P02768); assay: In vitro protein binding, human serum albumin; type: in vitro ADME
Sequence of human serum albumin (P02768 25-609): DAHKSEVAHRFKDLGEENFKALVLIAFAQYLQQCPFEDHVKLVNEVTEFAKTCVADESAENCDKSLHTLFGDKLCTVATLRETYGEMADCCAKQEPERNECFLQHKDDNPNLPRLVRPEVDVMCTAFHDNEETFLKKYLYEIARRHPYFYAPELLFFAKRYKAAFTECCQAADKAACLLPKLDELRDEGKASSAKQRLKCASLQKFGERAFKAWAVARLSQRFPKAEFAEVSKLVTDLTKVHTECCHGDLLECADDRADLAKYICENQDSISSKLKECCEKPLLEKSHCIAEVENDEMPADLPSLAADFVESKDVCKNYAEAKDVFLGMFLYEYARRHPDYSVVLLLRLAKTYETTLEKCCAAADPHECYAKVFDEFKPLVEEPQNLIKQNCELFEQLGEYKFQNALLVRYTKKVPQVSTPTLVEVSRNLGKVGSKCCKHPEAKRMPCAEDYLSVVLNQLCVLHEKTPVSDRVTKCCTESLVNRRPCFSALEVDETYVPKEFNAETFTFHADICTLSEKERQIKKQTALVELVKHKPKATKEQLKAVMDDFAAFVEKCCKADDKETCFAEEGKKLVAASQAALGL

dogs = assay: General toxicology studies in dogs; type: in vivo, dog
[5] = Clinical drug interaction studies, effects of other drugs on belumosudil in healthy subjects; type: in vivo, human
pregnant rabbits = conditions: female, rabbit, in vivo, po
CYP1A2 = biological target: T2, CYP1A2 (Homo sapiens, UniProt P05177); assay: In vitro enzyme inhibition, CYP1A2; type: in vitro ADME
T2 sequence (P05177 1-516): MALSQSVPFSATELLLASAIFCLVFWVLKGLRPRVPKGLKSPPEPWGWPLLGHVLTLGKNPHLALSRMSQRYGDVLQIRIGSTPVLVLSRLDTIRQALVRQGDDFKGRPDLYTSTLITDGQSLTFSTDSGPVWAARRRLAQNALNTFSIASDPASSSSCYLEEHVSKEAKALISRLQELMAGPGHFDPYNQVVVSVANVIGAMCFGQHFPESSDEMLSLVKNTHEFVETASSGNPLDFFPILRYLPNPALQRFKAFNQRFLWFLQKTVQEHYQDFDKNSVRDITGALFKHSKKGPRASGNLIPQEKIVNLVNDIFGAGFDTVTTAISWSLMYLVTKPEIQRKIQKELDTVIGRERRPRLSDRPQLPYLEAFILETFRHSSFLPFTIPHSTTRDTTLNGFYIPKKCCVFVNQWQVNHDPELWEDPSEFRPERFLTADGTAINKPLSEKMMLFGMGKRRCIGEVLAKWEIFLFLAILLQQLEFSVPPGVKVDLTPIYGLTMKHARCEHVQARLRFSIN

[6] = single oral dose of radiolabeled belumosudil

CC(C)NC(=O)COc1cccc(-c2nc(Nc3ccc4[nH]ncc4c3)c3ccccc3n2)c1 [belumosudil, 2-{3-[4-(1H-indazol-5-ylamino)-2-quinazolinyl]phenoxy}-N-(propan-2-yl) acetamide]
genotoxicity, chromosome aberration assay [1]: not genotoxic
AUC increase with high-fat and high-calorie meal vs fasted ([2]; single dose): 2 times
Cmax increase with high-fat and high-calorie meal vs fasted ([2]; single dose): 2.2 times
radioactivity recovered in feces [2, 6]: 85%
radioactivity recovered in feces as unchanged [2, 6]: 30%
radioactivity recovered in urine [2, 6]: less than 5%
Alanine Aminotransferase Increased ([3]; Grade 2-4 Max Post): 7%
Alkaline Phosphatase Increased ([3]; Grade 2-4 Max Post): 9%
Calcium Decreased ([3]; Grade 2-4 Max Post): 12%
Creatinine Increased ([3]; Grade 2-4 Max Post): 4%
Gamma Glutamyl Transferase Increased ([3]; Grade 2-4 Max Post): 21%
Hemoglobin Decreased ([3]; Grade 2-4 Max Post): 11%
Lymphocytes Decreased ([3]; Grade 2-4 Max Post): 29%
Neutrophil Count Decreased ([3]; Grade 2-4 Max Post): 8%
Phosphate Decreased ([3]; Grade 2-4 Max Post): 28%
Platelets Decreased ([3]; Grade 2-4 Max Post): 10%
Potassium Increased ([3]; Grade 2-4 Max Post): 7%
Alanine Aminotransferase Increased ([3]; Grade 3-4 Max Post): 2%
Alkaline Phosphatase Increased ([3]; Grade 3-4 Max Post): 0%
Calcium Decreased ([3]; Grade 3-4 Max Post): 1%
Creatinine Increased ([3]; Grade 3-4 Max Post): 0%
Gamma Glutamyl Transferase Increased ([3]; Grade 3-4 Max Post): 11%
Hemoglobin Decreased ([3]; Grade 3-4 Max Post): 1%
Lymphocytes Decreased ([3]; Grade 3-4 Max Post): 13%
Neutrophil Count Decreased ([3]; Grade 3-4 Max Post): 4%
Phosphate Decreased ([3]; Grade 3-4 Max Post): 7%
Platelets Decreased ([3]; Grade 3-4 Max Post): 5%
Potassium Increased ([3]; Grade 3-4 Max Post): 1%
Abdominal pain, All Grades ([3]; N=83): 22%
Abdominal pain, Grades 3-4 ([3]; N=83): 1%
Arthralgia, All Grades ([3]; N=83): 15%
Arthralgia, Grades 3-4 ([3]; N=83): 2%
Asthenia, All Grades ([3]; N=83): 46%
Asthenia, Grades 3-4 ([3]; N=83): 4%
Bacterial infection, All Grades ([3]; N=83): 16%
Bacterial infection, Grades 3-4 ([3]; N=83): 4%
Cough, All Grades ([3]; N=83): 30%
Cough, Grades 3-4 ([3]; N=83): 0%
Decreased appetite, All Grades ([3]; N=83): 17%
Decreased appetite, Grades 3-4 ([3]; N=83): 1%
Diarrhea, All Grades ([3]; N=83): 35%
Diarrhea, Grades 3-4 ([3]; N=83): 5%
Dysphagia, All Grades ([3]; N=83): 16%
Dysphagia, Grades 3-4 ([3]; N=83): 0%
Dyspnea, All Grades ([3]; N=83): 33%
Dyspnea, Grades 3-4 ([3]; N=83): 5%
Edema, All Grades ([3]; N=83): 27%
Edema, Grades 3-4 ([3]; N=83): 1%
Headache, All Grades ([3]; N=83): 21%
Headache, Grades 3-4 ([3]; N=83): 0%
Hemorrhage, All Grades ([3]; N=83): 23%
Hemorrhage, Grades 3-4 ([3]; N=83): 5%
Hypertension, All Grades ([3]; N=83): 21%
Hypertension, Grades 3-4 ([3]; N=83): 7%
Infection (pathogen not specified), All Grades ([3]; N=83): 53%
Infection (pathogen not specified), Grades 3-4 ([3]; N=83): 16%
Muscle spasm, All Grades ([3]; N=83): 17%
Muscle spasm, Grades 3-4 ([3]; N=83): 0%
Musculoskeletal pain, All Grades ([3]; N=83): 22%
Musculoskeletal pain, Grades 3-4 ([3]; N=83): 4%
Nausea (includes vomiting), All Grades ([3]; N=83): 42%
Nausea (includes vomiting), Grades 3-4 ([3]; N=83): 4%
Pruritus, All Grades ([3]; N=83): 11%
Pruritus, Grades 3-4 ([3]; N=83): 0%
Pyrexia, All Grades ([3]; N=83): 18%
Pyrexia, Grades 3-4 ([3]; N=83): 1%
Rash, All Grades ([3]; N=83): 12%
Rash, Grades 3-4 ([3]; N=83): 0%
Viral infection, All Grades ([3]; N=83): 19%
Viral infection, Grades 3-4 ([3]; N=83): 4%
adverse reactions leading to dose interruption ([3]; N=83): 29%
dose interruption due to asthenia, dyspnea, hemorrhage, hypotension, liver function test abnormal, nausea, pyrexia, edema, renal failure (each) ([3]; N=83): 2%
dose interruption due to diarrhea ([3]; N=83): 4%
dose interruption due to infections ([3]; N=83): 11%
permanent discontinuation due to adverse reactions ([3]; N=83): 18%
permanent discontinuation due to nausea ([3]; N=83): 4%
inhibition of OATP1B1 (OATP1B1): inhibits
increase of Cmax and AUC with dose ([4]; dosage range of 200 and 400 mg): approximately proportional
effect of age (18 to 77 years), sex, weight (38.6 to 143 kg), mild to moderate renal impairment on pharmacokinetics ([4]; human, in vivo): No clinically significant differences
binding to human serum albumin (human serum albumin): 99.9%
dose with spermatozoa degeneration (dogs): 35 mg/kg/day
decrease of belumosudil AUC with omeprazole [5]: 47%
decrease of belumosudil AUC with rabeprazole [5]: 80%
decrease of belumosudil AUC with rifampin [5]: 72%
decrease of belumosudil Cmax with omeprazole [5]: 68%
decrease of belumosudil Cmax with rabeprazole [5]: 87%
decrease of belumosudil Cmax with rifampin [5]: 59%
effect of itraconazole (strong CYP3A inhibitor) on belumosudil exposure [5]: no clinically meaningful effect
doses at which embryo-fetal effects were observed (pregnant rabbits): ≥ 50 mg/kg/day
doses at which maternal toxicity (body weight loss and mortality) was observed (pregnant rabbits): ≥ 125 mg/kg/day
inhibition of CYP1A2 (CYP1A2): inhibitor
